{
  "source": "paper PMC2572567",
  "about": "(Biochemical pharmacology, 2008)",
  "key": {"heart rate": {"tested_on": "heart rate", "conditions": "Starling heart-lung preparation of the dog; cited from earlier work"}, "[1]": {"tested_on": "cardiac muscarinic receptors", "conditions": "cited from earlier work"}, "BChE in rat heart": {"target": "BChE in rat heart (Rattus norvegicus, UniProt Q9JKC1)", "sequence (Q9JKC1 24-597)": "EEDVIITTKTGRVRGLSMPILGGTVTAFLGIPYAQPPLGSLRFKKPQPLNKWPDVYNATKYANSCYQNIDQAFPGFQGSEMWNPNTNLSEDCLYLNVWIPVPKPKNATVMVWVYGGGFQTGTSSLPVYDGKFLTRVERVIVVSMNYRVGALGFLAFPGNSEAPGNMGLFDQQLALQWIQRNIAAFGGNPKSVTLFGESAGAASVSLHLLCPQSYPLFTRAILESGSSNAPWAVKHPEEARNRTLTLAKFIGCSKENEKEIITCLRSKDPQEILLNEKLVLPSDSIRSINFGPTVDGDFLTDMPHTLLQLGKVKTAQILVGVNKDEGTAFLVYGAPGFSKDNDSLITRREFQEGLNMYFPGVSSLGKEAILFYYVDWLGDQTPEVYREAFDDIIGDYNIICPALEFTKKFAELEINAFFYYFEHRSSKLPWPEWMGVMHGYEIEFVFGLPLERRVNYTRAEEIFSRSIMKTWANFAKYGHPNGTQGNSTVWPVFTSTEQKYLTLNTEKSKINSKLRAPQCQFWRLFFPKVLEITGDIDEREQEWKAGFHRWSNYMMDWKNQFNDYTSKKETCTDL", "test": "Radiometric cholinesterase assay, BChE activity in cardiac homogenates", "type": "biochemical"}, "[2]": {"tested_on": "muscarinic receptors in cortex", "test": "[3H]oxotremorine-M displacement assay, cortical membranes", "type": "binding, rat", "conditions": "for [3H]Oxotremorine-M maximum displacement: 1 nM [3H]OXO, 21°C, 90 min, mean ± S.E."}, "[3]": {"target": "T1, muscarinic receptors in heart (Rattus norvegicus, UniProt P10980)", "T1 sequence (P10980 1-466)": "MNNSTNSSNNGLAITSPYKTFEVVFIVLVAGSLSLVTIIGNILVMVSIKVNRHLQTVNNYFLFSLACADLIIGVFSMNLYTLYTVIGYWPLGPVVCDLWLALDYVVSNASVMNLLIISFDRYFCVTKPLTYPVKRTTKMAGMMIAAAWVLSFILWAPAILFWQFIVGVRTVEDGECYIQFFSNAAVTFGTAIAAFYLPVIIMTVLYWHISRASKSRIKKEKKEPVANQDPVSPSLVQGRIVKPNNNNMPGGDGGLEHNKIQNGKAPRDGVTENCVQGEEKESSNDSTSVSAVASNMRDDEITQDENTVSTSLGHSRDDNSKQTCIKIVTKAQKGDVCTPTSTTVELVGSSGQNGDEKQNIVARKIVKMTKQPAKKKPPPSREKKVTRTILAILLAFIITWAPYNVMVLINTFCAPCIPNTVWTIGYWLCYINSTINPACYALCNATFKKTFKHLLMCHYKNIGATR", "test": "[3H]oxotremorine-M displacement assay, cardiac membranes", "type": "binding", "conditions": "for [3H]Oxotremorine-M maximum displacement: 1 nM [3H]OXO, 21°C, 90 min, mean ± S.E."}, "rats [4]": {"tested_on": "rats", "conditions": "cited from earlier work"}, "rats [5]": {"tested_on": "rats", "conditions": "aged versus adult rats; cited from earlier work"}, "AChE in rat heart": {"target": "T2, AChE in rat heart (Rattus norvegicus, UniProt P37136)", "T2 sequence (P37136 32-614)": "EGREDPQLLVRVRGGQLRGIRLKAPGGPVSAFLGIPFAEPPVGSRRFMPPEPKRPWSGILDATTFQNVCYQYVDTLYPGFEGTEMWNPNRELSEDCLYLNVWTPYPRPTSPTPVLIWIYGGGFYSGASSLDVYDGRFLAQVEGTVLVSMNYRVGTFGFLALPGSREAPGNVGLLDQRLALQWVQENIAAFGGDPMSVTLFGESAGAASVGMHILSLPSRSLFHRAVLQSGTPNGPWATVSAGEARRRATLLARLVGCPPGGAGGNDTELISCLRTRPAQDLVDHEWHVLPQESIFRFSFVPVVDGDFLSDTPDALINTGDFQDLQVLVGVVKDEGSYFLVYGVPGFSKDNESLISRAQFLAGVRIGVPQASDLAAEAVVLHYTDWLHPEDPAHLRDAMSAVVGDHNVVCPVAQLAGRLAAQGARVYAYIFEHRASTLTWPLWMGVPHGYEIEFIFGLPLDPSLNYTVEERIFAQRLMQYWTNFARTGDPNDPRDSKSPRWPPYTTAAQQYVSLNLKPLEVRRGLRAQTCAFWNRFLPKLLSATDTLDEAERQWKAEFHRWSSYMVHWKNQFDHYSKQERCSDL", "test": "Radiometric cholinesterase assay, AChE activity in cardiac homogenates", "type": "biochemical", "conditions": "heart and cortex (Tables 2 and 3)"}},
  "data": [
    {"smiles": "C=CC[N+](C)(C)c1ccc(CCC(=O)CCc2ccc([N+](C)(C)CC=C)cc2)cc1.[Br-].[Br-]", "note": "[BW 284C51, 1,5-bis (allyldimethylammoniumphenyl) pentane-3-dibromide]", "values": [
      {"measurement": "Effect on heart rate", "setting": "heart rate", "result": "had no effect"}
    ]},
    {"smiles": "CCOP(=O)(OCC)Oc1nc(Cl)c(Cl)cc1Cl", "note": "[Chlorpyrifos oxon, O,O′-diethyl-O-3,5,6-trichloro-2-pyridinyl phosphate]", "values": [
      {"measurement": "Nature of interaction with cardiac muscarinic receptors ([3H]OXO binding sites)", "setting": "[1]", "result": "irreversible"},
      {"measurement": "Sensitivity of BChE relative to AChE to inhibition in vitro", "setting": "BChE in rat heart; heart and cortex, both age groups", "result": "3.5–12 times"},
      {"measurement": "[3H]Oxotremorine-M maximum displacement", "setting": "[2]; adult cortex membranes", "result": "51 ± 2", "unit": "%"},
      {"measurement": "[3H]Oxotremorine-M maximum displacement", "setting": "[2]; aging cortex membranes", "result": "49 ± 3", "unit": "%"},
      {"measurement": "[3H]Oxotremorine-M maximum displacement", "setting": "[3]; adult heart membranes", "result": "50 ± 3", "unit": "%"},
      {"measurement": "[3H]Oxotremorine-M maximum displacement", "setting": "[3]; aging heart membranes", "result": "39 ± 4", "unit": "%"}
    ]},
    {"smiles": "CCOP(=S)(OCC)Oc1nc(Cl)c(Cl)cc1Cl", "note": "[Chlorpyrifos, O,O′-diethyl-O-3,5,6-trichloro-2-pyridinyl phosphorothioate]", "values": [
      {"measurement": "Displacement of [3H]OXO radioligand binding (in words)", "setting": "[2]; cortex, adult and aging rats, 30 pM-3 μM", "result": "did not displace"},
      {"measurement": "oral LD50", "setting": "rats [4]", "result": "about 100 mg/kg"},
      {"measurement": "Sensitivity of aged rats to acute toxicity relative to adults", "setting": "rats [5]", "result": "similar"},
      {"measurement": "Displacement of [3H]OXO radioligand binding (in words)", "setting": "[3]; heart, adult and aging rats, 30 pM-3 μM", "result": "did not displace"}
    ]},
    {"smiles": "COP(=O)(OC)Oc1ccc([N+](=O)[O-])cc1", "note": "[Methyl paraoxon, O,O′-dimethyl-p-nitrophenyl-phosphate]", "values": [
      {"measurement": "[3H]Oxotremorine-M maximum displacement", "setting": "[2]; adult cortex membranes", "result": "33 ± 2", "unit": "%"},
      {"measurement": "[3H]Oxotremorine-M maximum displacement", "setting": "[2]; aging cortex membranes", "result": "36 ± 2", "unit": "%"},
      {"measurement": "[3H]OXO displacement IC50 in aging cortex, fold higher than adult cortex", "setting": "[2]; aging versus adult cortex", "result": "~ 10 fold"},
      {"measurement": "[3H]Oxotremorine-M maximum displacement", "setting": "[3]; adult heart membranes", "result": "37 ± 3", "unit": "%"},
      {"measurement": "[3H]Oxotremorine-M maximum displacement", "setting": "[3]; aging heart membranes", "result": "29 ± 3", "unit": "%"},
      {"measurement": "Sensitivity of AChE relative to BChE to inhibition", "setting": "AChE in rat heart", "result": "~ 2 fold"}
    ]},
    {"smiles": "COP(=S)(OC)Oc1ccc([N+](=O)[O-])cc1", "note": "[Methyl parathion, O,O′-dimethyl-p-nitrophenyl-phosphorothioate]", "values": [
      {"measurement": "Nature of interaction with cardiac muscarinic receptors ([3H]OXO binding sites)", "setting": "[1]", "result": "reversibly"},
      {"measurement": "[3H]Oxotremorine-M maximum displacement", "setting": "[2]; adult cortex membranes", "result": "22 ± 3", "unit": "%"},
      {"measurement": "[3H]Oxotremorine-M maximum displacement", "setting": "[2]; aging cortex membranes", "result": "20 ± 3", "unit": "%"},
      {"measurement": "oral LD50", "setting": "rats [4]", "result": "about 20 mg/kg"},
      {"measurement": "[3H]Oxotremorine-M maximum displacement", "setting": "[3]; adult heart membranes", "result": "31 ± 3", "unit": "%"},
      {"measurement": "[3H]Oxotremorine-M maximum displacement", "setting": "[3]; aging heart membranes", "result": "26 ± 2", "unit": "%"}
    ]},
    {"smiles": "CC(C)NP(=O)(NC(C)C)OP(=O)(NC(C)C)NC(C)C", "note": "[iso-OMPA, tetraisopropylpyrophosphoramide]", "values": [
      {"measurement": "IC50", "setting": "BChE in rat heart", "result": 0.2, "unit": "µM"},
      {"measurement": "IC50 against BChE in heart, fold lower than in cortex", "setting": "BChE in rat heart; adult and aging, heart versus cortex", "result": "~ 10 fold"}
    ]},
    {"smiles": "CCOP(=S)(OCC)Oc1ccc([N+](=O)[O-])cc1", "note": "[parathion]", "values": [
      {"measurement": "Sensitivity of aged rats to acute toxicity relative to adults", "setting": "rats [5]", "result": 3, "unit": "fold"}
    ]}
  ]
}
